Experiment [1] deals with AIMP2-DX2. The experiment in a line: AIMP2-DX2 luciferase assay in pGL-DX-2 transfected A549 lung cancer cells. The conditions noted are these: A549 transfected with pGL-DX-2, cultured 24 hours, 4 hours treatment, lower = more inhibition, N.C (DMSO) 20089.
Experimental: (§1) After 24 hours in culture, transfected lung cancer cells were treated with the compounds of the library. 4 hours later, luciferase activity was measured with a luminometer using a luciferase assay kit according to a manufacturer protocol (Promega, US).
(§2) Lung cancer cell lines A549 and H460 were transfected with pGL-DX-2, cultured for 24 hours, and treated with the newly synthesized compounds. After further culturing for 4 hours, luciferase activity was measured.
The subject of experiment [2] is AIMP2-DX2. Put plainly: AIMP2-DX2 luciferase assay in pGL2-DX2 transfected H460 lung cancer cells. The note with it: H460 transfected with pGL-DX-2, cultured 24 hours, 4 hours treatment, lower = more inhibition, N.C (DMSO) 8627.
Experimental: as §1, §2

As for `CCOC(=O)CC(=O)Nc1ccc(Cl)cn1` [No. 8, ethyl 3-[(5-chloropyridin-2-yl)amino]-3-oxopropanoate], the “AIMP2-DX2 Activity in A549 cells” value with AIMP2-DX2 [1] was found to be 8045. The “AIMP2-DX2 Activity in H460 cells” value in the experiment on AIMP2-DX2 [2] was 6348.
In the case of `CCOC(=O)CC(=O)Nc1cnc2ccccc2c1` [No. 3, ethyl 3-oxo-3-(quinolin-3-ylamino)propanoate], the “AIMP2-DX2 Activity in A549 cells” value with AIMP2-DX2 [1] is reported as 17967. In the experiment with AIMP2-DX2 [2], the “AIMP2-DX2 Activity in H460 cells” value was 5447.
For `CCOC(=O)CC(=O)Nc1cc(O)ccn1` [No. 5, ethyl 3-[(4-hydroxypyridin-2-yl)amino]-3-oxopropanoate], in that order: 5721 and 4984.
On the same counts, the results for `CCOC(=O)CC(=O)Nc1nc(C)ccc1C` [No. 4, ethyl 3-[(3,6-dimethylpyridin-2-yl)amino]-3-oxopropanoate] are 18252 and 4914.
On the same counts, the results for `CCOC(=O)C(C)C(=O)Nc1ccc(Cl)cn1` (stereo not shown) [No. 1, ethyl 3-[(5-chloropyridin-2-yl)amino]-2-methyl-3-oxopropanoate] are 5295 and 7668.
For `CCOC(=O)C(C)C(=O)Nc1cnc2ccccc2c1` (stereo not shown) [No. 6, ethyl 2-methyl-3-oxo-3-(quinolin-3-ylamino)propanoate], the “AIMP2-DX2 Activity in A549 cells” value with AIMP2-DX2 [1] came to 6011. The “AIMP2-DX2 Activity in H460 cells” value with AIMP2-DX2 [2] was 5083.
As to `CCOC(=O)CC(=O)Nc1cccc(C)n1` [No. 2, ethyl 3-[(6-methylpyridin-2-yl)amino]-3-oxopropanoate], the “AIMP2-DX2 Activity in A549 cells” value with AIMP2-DX2 [1] is 8070. Moreover, the “AIMP2-DX2 Activity in H460 cells” value in the experiment on AIMP2-DX2 [2] worked out at 7740.
For the molecule `CCOC(=O)C(C)C(=O)Nc1cccc(C)n1` (stereo not shown) [No. 7, ethyl 2-methyl-3-[(6-methylpyridin-2-yl)amino]-3-oxopropanoate], the “AIMP2-DX2 Activity in A549 cells” value with AIMP2-DX2 [1] was determined as 6568. The “AIMP2-DX2 Activity in H460 cells” value with AIMP2-DX2 [2] is on record as 6082.
